pIC50: −log10 of the molar value. Where two headings read alike, the source gives them in different places.
Columns and labels:
[1] = test system: DMS-53; assay: CellTiter-Glo proliferation and viability assay; assay type: cell-based; details: Homo sapiens, read-out: Abs IC50
[2] = test system: SiHa; assay: CellTiter-Glo proliferation and viability assay; assay type: cell-based; details: Homo sapiens
[3] = test system: NCI-H2170; assay: CellTiter-Glo proliferation and viability assay; assay type: cell-based; details: Homo sapiens
[4] = test system: NCI-H1155; assay: CellTiter-Glo proliferation and viability assay; assay type: cell-based; details: Homo sapiens
[5] = test system: NCI-H1993; assay: CellTiter-Glo proliferation and viability assay; assay type: cell-based; details: Homo sapiens
[6] = test system: NCI-H2126; assay: CellTiter-Glo proliferation and viability assay; assay type: cell-based; details: Homo sapiens
[7] = test system: EB2; assay: CellTiter-Glo proliferation and viability assay; assay type: cell-based; details: Homo sapiens
[8] = test system: LN 229; assay: CellTiter-Glo proliferation and viability assay; assay type: cell-based; details: Homo sapiens
[9] = test system: HCT-116 cells; assay: CellTiter-Blue HCT-116 cell proliferation assay; assay type: cell-based; details: Homo sapiens; HCT-116, CellTiter-Blue; read-out: Cell Proliferation Inhibition IC50
Method: (§1) HCT-116 cells (catalog #CCL-247) are obtained from the American Type Culture Collection (ATCC, Manassas, Va.). Briefly, cells are grown in McCoy's 5A supplemented with 10% characterized fetal bovine serum (Invitrogen, Carlsbad, Calif.), and 1% Penicillin/Streptomycin/L-Glutamine at 37 degrees Celsius, 5% CO2, and 95% humidity. Cells are allowed to expand until reaching 75-90% confluency at which point they are subcultured or harvested for assay use. A serial dilution of test compound is dispensed into a 384-well black clear bottom plate in triplicate. Six hundred twenty-five cells are added per well in 50 μL complete growth medium in the 384-well plate. Plates are incubated for 67 hours at 37 degrees Celsius, 5% CO2, and 95% humidity. At the end of the incubation period, 10 μL of a 440 μM solution of resazurin (Sigma, St. Louis, Mo.) in PBS is added to each well of the plate and plates are incubated for an additional 5 hours at 37 degrees Celsius, 5% CO2, and 95% humidity. Plates are read on a Synergy2 reader (Biotek, Winooski, Vt.) using an excitation of 540 nm and an emission of 600 nm. Data is analyzed using Prism software (Graphpad, San Diego, Calif.) to calculate IC50 values.
(§2) The A375, HT-29, and Colo-205 cells (ATCC) harbor a V600E mutation.

[10] = test system: A375 cells; assay: CellTiter-Blue A375 cell proliferation assay; assay type: cell-based; details: Homo sapiens, A-375, read-out: Cell Proliferation Inhibition IC50
Method: as §1, with “Collection” for “HCT-116 cells (catalog #CCL-247) are obtained from the American Type Culture Collection”, “DMEM High Glucose” for “McCoy's 5A”, “Calif.)” for “Calif.),”, “70-95%” for “75-90%”
as §2

[11] = test system: HCT-116; assay: CellTiter-Glo proliferation and viability assay; details: Homo sapiens
[12] = test system: 22RV1; assay: CellTiter-Glo proliferation and viability assay; assay type: cell-based; details: Homo sapiens
[13] = test system: Colo205 cells; assay: CellTiter-Blue Colo-205 cell proliferation assay; assay type: cell-based; details: Homo sapiens; Colo-205, CellTiter-Blue; read-out: Cell Proliferation Inhibition IC50
Method: as §1, with “Colo205” for “HCT-116”, “#HB-8307)” for “#CCL-247)”, “RPMI 1640” for “McCoy's 5A”, “Calif.), 1 mM sodium pyruvate,” for “Calif.),”, “30-60%” for “75-90%”, “One thousand two-hundred fifty” for “Six hundred twenty-five”
as §2

[14] = test system: NCI-H1793; assay: CellTiter-Glo proliferation and viability assay; assay type: cell-based; details: Homo sapiens
[15] = test system: CaOV-3; assay: CellTiter-Glo proliferation and viability assay; assay type: cell-based; details: Homo sapiens
[16] = test system: LOVO; assay: CellTiter-Glo proliferation and viability assay; assay type: cell-based; details: Homo sapiens
[17] = test system: NCI-H522; assay: CellTiter-Glo proliferation and viability assay; assay type: cell-based; details: Homo sapiens
[18] = test system: Calu-6; assay: CellTiter-Glo proliferation and viability assay; assay type: cell-based; details: Homo sapiens
[19] = test system: NCI-H1299; assay: CellTiter-Glo proliferation and viability assay; assay type: cell-based; details: Homo sapiens
[20] = test system: MDA-MB-436; assay: CellTiter-Glo proliferation and viability assay; assay type: cell-based; details: Homo sapiens

pIC50 ([3]; read-out: Abs IC50): 7.82
pIC50 ([3]; read-out: Rel IC50): 7.70
pIC50 ([4]; read-out: Abs IC50): < 7.70
pIC50 ([4]; read-out: Rel IC50): 9.33
pIC50 ([5]; read-out: Abs IC50): 9.77
pIC50 ([5]; read-out: Rel IC50): 10.05
pIC50 ([6]; read-out: Abs IC50): < 7.70
pIC50 ([6]; read-out: Rel IC50): < 7.70
pIC50 [9]: 6.65
pIC50 [10]: 8.05
pIC50 ([11]; HCT-116, read-out: Abs IC50): 9.14
pIC50 ([11]; HCT-116, read-out: proliferation and viability IC50): 6.75
pIC50 ([12]; read-out: Abs IC50): 8.71
pIC50 ([12]; read-out: Rel IC50): 9.72
pIC50 [13]: 7.57
pIC50 ([14]; read-out: Abs IC50): < 7.70
pIC50 ([14]; read-out: Rel IC50): 9.44
pIC50 ([16]; read-out: Abs IC50): 9.72
pIC50 ([16]; read-out: Rel IC50): 9.92
pIC50 ([17]; read-out: Abs IC50): 8.35
pIC50 ([17]; read-out: Rel IC50): 9.66
pIC50 ([18]; read-out: Abs IC50): 9.62
pIC50 ([18]; read-out: Rel IC50): 9.66
pIC50 ([19]; read-out: Abs IC50): 9.04
pIC50 ([19]; read-out: Rel IC50): 9.85
pIC50 ([20]; read-out: Abs IC50): < 7.70
pIC50 ([20]; read-out: Rel IC50): 9.59
Compound: CNc1ncc2cc(-c3cc(NC(=O)NCCC(C)(C)C)c(F)cc3C)c(C)nc2n1 [Example 1, 1-(3,3-Dimethylbutyl)-3-(2-fluoro-4-methyl-5-(7-methyl-2-(methylamino)pyrido[2,3-d]pyrimidin-6-yl)phenyl)urea]
pIC50 [1]: 9.22
pIC50 ([2]; read-out: Abs IC50): < 7.70
pIC50 ([2]; read-out: Rel IC50): < 7.70
pIC50 ([7]; read-out: Abs IC50): < 7.70
pIC50 ([7]; read-out: Rel IC50): 9.30
pIC50 ([8]; read-out: Abs IC50): 8.91
pIC50 ([8]; read-out: Rel IC50): 8.97
pIC50 ([15]; read-out: Abs IC50): 8.02
pIC50 ([15]; read-out: Rel IC50): 8.27

Source: patent US8741911B2, “Raf inhibitor compounds” (Eli Lilly and Company, priority 2012, dated 2014)
